Species on record: Rattus norvegicus
Experiment: DrugMatrix - Regimen: Daily Repeat
Type: toxicity, organism-based, Sprague-Dawley
Parameters: regimen Daily Repeat, gender Male, age 6-8 weeks
Conditions: in vivo, po, route oral GAVAGE, […]; for ABSOLUTE BASOPHIL / ABSOLUTE EOSINOPHIL / ABSOLUTE LYMPHOCYTE / ABSOLUTE MONOCYTE / ABSOLUTE SEGMENTED NEUTROPHIL / BASOPHIL / EOSINOPHIL / ERYTHROCYTE COUNT / HEMATOCRIT / HEMOGLOBIN / LEUKOCYTE COUNT / LYMPHOCYTE / MEAN CORPUSCULAR HEMOGLOBIN / MEAN CORPUSCULAR VOLUME / MONOCYTE / NEUTROPHIL / NUCLEATED RED BLOOD CELLS / PLATELET COUNT: tissue Blood; for ALANINE AMINOTRANSFERASE / ALBUMIN / ALKALINE PHOSPHATASE / ASPARTATE AMINOTRANSFERASE / BLOOD UREA NITROGEN / CARBON DIOXIDE / CHLORIDE / CHOLESTEROL / CREATINE PHOSPHOKINASE / CREATININE / GLUCOSE / LACTATE DEHYDROGENASE / LIPASE / PHOSPHORUS / POTASSIUM / SODIUM / TOTAL BILIRUBIN / TOTAL PROTEIN / URIC ACID: tissue Plasma
[1] = 70 mg/kg, 120 h, dose level M1, time 5 day
[2] = 700 mg/kg, 72 h, dose level High, time 3 day
[3] = 700 mg/kg, 120 h, dose level High, time 5 day

CCCCCCCCc1ccc(O)cc1 [4-OCTYLPHENOL]
ABSOLUTE BASOPHIL [1]: 0 CELLS/uL | ABSOLUTE EOSINOPHIL [1]: 194 CELLS/uL | ABSOLUTE LYMPHOCYTE [1]: 9540.33 CELLS/uL | ABSOLUTE MONOCYTE [1]: 80.33 CELLS/uL | ABSOLUTE SEGMENTED NEUTROPHIL [1]: 918.67 CELLS/uL | BASOPHIL [1]: 0% | EOSINOPHIL [1]: 1.67% | ERYTHROCYTE COUNT [1]: 5.98 x10E6/uL | HEMATOCRIT [1]: 36.37% | HEMOGLOBIN [1]: 13.77 G/DL | LEUKOCYTE COUNT [1]: 10.73 x10E3/uL | LYMPHOCYTE [1]: 88.67% | MEAN CORPUSCULAR HEMOGLOBIN [1]: 23.03 pg | MEAN CORPUSCULAR VOLUME [1]: 60.9 fL | MONOCYTE [1]: 0.67% | NEUTROPHIL [1]: 9% | NUCLEATED RED BLOOD CELLS [1]: 0.33 /100WBC | PLATELET COUNT [1]: 1062 x10E3/uL | ALANINE AMINOTRANSFERASE [1]: 72 u/L | ALBUMIN [1]: 4.1 G/DL | ALKALINE PHOSPHATASE [1]: 380.67 u/L | ASPARTATE AMINOTRANSFERASE [1]: 88.67 u/L | BLOOD UREA NITROGEN [1]: 16.67 mg/dL | CARBON DIOXIDE [1]: 27 mmol/L | CHLORIDE [1]: 102.33 MEQ/L | CHOLESTEROL [1]: 57.67 mg/dL | CREATINE PHOSPHOKINASE [1]: 355.33 u/L | CREATININE [1]: 0.18 mg/dL | GLUCOSE [1]: 157.33 mg/dL | LACTATE DEHYDROGENASE [1]: 260.67 u/L | LIPASE [1]: 11.67 u/L | PHOSPHORUS [1]: 11.13 mg/dL | POTASSIUM [1]: 5.91 MEQ/L | SODIUM [1]: 142.87 MEQ/L | TOTAL BILIRUBIN [1]: 0.17 mg/dL | TOTAL PROTEIN [1]: 5.87 G/DL | URIC ACID [1]: 1.6 mg/dL | ABSOLUTE BASOPHIL [2]: 0 CELLS/uL | ABSOLUTE EOSINOPHIL [2]: 0 CELLS/uL | ABSOLUTE LYMPHOCYTE [2]: 8011 CELLS/uL | ABSOLUTE MONOCYTE [2]: 200 CELLS/uL | ABSOLUTE SEGMENTED NEUTROPHIL [2]: 2522.33 CELLS/uL | BASOPHIL [2]: 0% | EOSINOPHIL [2]: 0% | ERYTHROCYTE COUNT [2]: 6.31 x10E6/uL | HEMATOCRIT [2]: 38.63% | HEMOGLOBIN [2]: 14.83 G/DL | LEUKOCYTE COUNT [2]: 10.73 x10E3/uL | LYMPHOCYTE [2]: 73.33% | MEAN CORPUSCULAR HEMOGLOBIN [2]: 23.5 pg | MEAN CORPUSCULAR VOLUME [2]: 61.27 fL | MONOCYTE [2]: 2% | NEUTROPHIL [2]: 24.67% | NUCLEATED RED BLOOD CELLS [2]: 0.67 /100WBC | PLATELET COUNT [2]: 1294.33 x10E3/uL | ALANINE AMINOTRANSFERASE [2]: 165.67 u/L | ALBUMIN [2]: 3.93 G/DL | ALKALINE PHOSPHATASE [2]: 493 u/L | ASPARTATE AMINOTRANSFERASE [2]: 140.33 u/L | BLOOD UREA NITROGEN [2]: 33.33 mg/dL | CARBON DIOXIDE [2]: 26.67 mmol/L | CHLORIDE [2]: 97.67 MEQ/L | CHOLESTEROL [2]: 169.67 mg/dL | CREATINE PHOSPHOKINASE [2]: 748 u/L | CREATININE [2]: 0.58 mg/dL | GLUCOSE [2]: 147.33 mg/dL | LACTATE DEHYDROGENASE [2]: 302.33 u/L | LIPASE [2]: 10.33 u/L | PHOSPHORUS [2]: 12.5 mg/dL | POTASSIUM [2]: 5.29 MEQ/L | SODIUM [2]: 140.03 MEQ/L | TOTAL BILIRUBIN [2]: 0.9 mg/dL | TOTAL PROTEIN [2]: 6.17 G/DL | URIC ACID [2]: 1.03 mg/dL | ABSOLUTE BASOPHIL [3]: 0 CELLS/uL | ABSOLUTE EOSINOPHIL [3]: 0 CELLS/uL | ABSOLUTE LYMPHOCYTE [3]: 7185 CELLS/uL | ABSOLUTE MONOCYTE [3]: 222.33 CELLS/uL | ABSOLUTE SEGMENTED NEUTROPHIL [3]: 759.33 CELLS/uL | BASOPHIL [3]: 0% | EOSINOPHIL [3]: 0% | ERYTHROCYTE COUNT [3]: 7.06 x10E6/uL | HEMATOCRIT [3]: 42.33% | HEMOGLOBIN [3]: 15.83 G/DL | LEUKOCYTE COUNT [3]: 8.17 x10E3/uL | LYMPHOCYTE [3]: 85% | MEAN CORPUSCULAR HEMOGLOBIN [3]: 22.53 pg | MEAN CORPUSCULAR VOLUME [3]: 60.13 fL | MONOCYTE [3]: 3.33% | NEUTROPHIL [3]: 11.67% | NUCLEATED RED BLOOD CELLS [3]: 0 /100WBC | PLATELET COUNT [3]: 1069.33 x10E3/uL | ALANINE AMINOTRANSFERASE [3]: 175.67 u/L | ALBUMIN [3]: 4.03 G/DL | ALKALINE PHOSPHATASE [3]: 554.67 u/L | ASPARTATE AMINOTRANSFERASE [3]: 104 u/L | BLOOD UREA NITROGEN [3]: 17 mg/dL | CARBON DIOXIDE [3]: 27.67 mmol/L | CHLORIDE [3]: 100 MEQ/L | CHOLESTEROL [3]: 150.33 mg/dL | CREATINE PHOSPHOKINASE [3]: 369 u/L | CREATININE [3]: 0.37 mg/dL | GLUCOSE [3]: 133 mg/dL | LACTATE DEHYDROGENASE [3]: 179.33 u/L | LIPASE [3]: 10.67 u/L | PHOSPHORUS [3]: 11.13 mg/dL | POTASSIUM [3]: 6.27 MEQ/L | SODIUM [3]: 143.2 MEQ/L | TOTAL BILIRUBIN [3]: 0.3 mg/dL | TOTAL PROTEIN [3]: 6.37 G/DL | URIC ACID [3]: 1.23 mg/dL

From ChEMBL document CHEMBL3885881, “DrugMatrix”
